Entries after “also recorded” stand apart in the source; their conditions may differ. Ends that are not written are not given here.
How the values were obtained:
[1] = tested on: B6-wildtype mice; assay: Blood pressure pre- and post-CTP injection; format: in vivo, mouse; conditions: CTP 10 mg/Kg i.v.; 6 h post-injection vs pre-injection; six mice, isoflurane
Description: Blood Pressure Pre- and Post-CTP Injection: Six B6-wildtype mice were obtained from the Jackson Laboratory. Blood pressure was taken using a non-invasive blood pressure system from Kent Scientific. Mice were anesthetized using 2.5% isoflurane exposure for 5 min, placed in a tube holder, and warmed using a warming blanket for approximately 15 min before their tails were fitted with blood pressure cuffs. A total of 21 blood pressure readings were taken, and average systolic and diastolic blood pressure calculated. After baseline blood pressure was established, mice were injected intravenously with 10 mg/Kg of CTP, and blood pressure was measured again 6 h post-injection.

[2] = target: T1, ADRA2A (Homo sapiens, UniProt P08913); assay: ADRA2A GPCR cAMP modulation assay; format: cell-based; conditions: compared to the controls
T1 construct: host or cells: cAMP Hunter cell line
T1 sequence (P08913 whole entry): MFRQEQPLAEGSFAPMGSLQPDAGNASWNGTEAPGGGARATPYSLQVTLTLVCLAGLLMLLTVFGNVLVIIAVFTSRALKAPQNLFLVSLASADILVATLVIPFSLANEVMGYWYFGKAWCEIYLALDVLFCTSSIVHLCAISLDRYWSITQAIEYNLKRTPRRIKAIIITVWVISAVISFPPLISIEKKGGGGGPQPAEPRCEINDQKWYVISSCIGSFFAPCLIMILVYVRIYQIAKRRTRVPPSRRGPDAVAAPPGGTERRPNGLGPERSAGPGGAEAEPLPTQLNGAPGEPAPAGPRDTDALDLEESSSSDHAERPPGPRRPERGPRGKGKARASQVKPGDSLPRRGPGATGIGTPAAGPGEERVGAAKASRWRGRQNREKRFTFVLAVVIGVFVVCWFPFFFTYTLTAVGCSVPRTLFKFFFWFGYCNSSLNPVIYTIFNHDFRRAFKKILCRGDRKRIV
Description: GPCR cAMP Modulation Assays: cAMP Hunter cell lines were grown, plated, and subjected to Eurofins’ DiscoverX HitHunter cAMP XS+ assay. Gs agonist activity, Gi agonist activity, and antagonist activity-induced assays were read using chemiluminescent signal detection. The percentage of activity was calculated for Gs and Gi agonist assays, and the percentage of inhibition was calculated for Gs antagonist assays. […]
cAMP Second ary Messenger Assay pound results in the release of calcium from intracellular stores and DiscoverX has developed a panel of cell lines stably expressing non- an increase in dye fluorescence that is measured in real-time. tagged GPCRs that endogenously signal through cAMP. […]
The enzyme is split into two complementary portions: Enzyme Ac-ceptor (EA) and Enzyme Donor (ED). […] Active enzyme can then convert a chemilumines-cent substrate, generating an output signal detectable on a standard The NHR is tagged with the ProLink™ (PK) component of our EFC microplate reader. assay system, and the SRCP domain is fused to the Enzyme Ac-ceptor component (EA) expressed in the nucleus. […]

Sequence: APWHLSSQYSRT [CTP]
- diastolic blood pressure [1]: No significant difference; also recorded: no significant (ns) change
- systolic blood pressure [1]: No significant difference; also recorded: no significant (ns) change
- agonist or antagonist action [2]: no significant action as either an agonist or antagonist
